Experimental data from US9877969B2, “Treatments with triazines” (CEVA SANTE ANIMALE, priority 2012, dated 2018).

Assays:
Format in all cases: in vivo
Isospora suis = experiment: Anti-coccidial efficacy in piglets orally challenged with Isospora suis (Example B); conditions: single i.m. 20 or 40 mg/kg (G1, G2)
Description: (§1) • Group 1: 10 piglets 2 days old were injected with one intramuscular dose of toltrazuril C629 (dose=20 mg toltrazuril per kg body weight equivalent to 0.4 mL/Kg body weight) on SD0. • Group 2: 11 piglets 2 days old were injected with one intramuscular dose of toltrazuril C629 (dose=40 mg toltrazuril per kg body weight equivalent to 0.8 mL/kg body weight) on SD0. • Group 3: 9 piglets 2 days old were dosed orally with the standard commercial formulation of toltrazuril, Cevazuril® (dose=20 mg toltrazuril per kg body weight equivalent to 0.4 mL/Kg body weight) on SD0. • Group 4: 8 piglets, left untreated.
(§2) All four (4) groups of piglets were injected on SD0 with iron injection (Gleptosil®) at the dose rate of 1 ml per piglet. 3 days after treatment (on SD3), the piglets were orally challenged with a characterized strain of Isospora suis.
(§3) The following study parameters were used to assess the efficacy of the test products: • Local and general tolerance (for Groups 1 and 2); • Occurrence of diarrhea and fecal consistency; • Oocyst excretion; • Body weight development; and • Serum concentrations of toltrazuril and its metabolite toltrazuril sulfone (e.g., ponazuril) in Groups 1, 2 and 3. Results

[1] = Pharmacokinetics: serum concentrations of toltrazuril and toltrazuril sulfone in 2-day-old piglets (Example B); conditions: after intramuscular application
Description: as §1, §2, §3

[2] = Body weight development of piglets on a farm with a known history of coccidiosis (Example A)
Description: (§4) This target animal safety and efficacy study was conducted on a farm with a known history of cocciodiosis. The main objective was to study the safety and efficacy of intramuscular injection of toltrazuril in comparison to the standard oral application. • Group 1: 8 piglets 3 days old were injected by a single intramuscular dose of toltrazuril (dose=20 mg toltrazuril per kg body weight equivalent to 0.4 mL/kg body weight) on SD0. • Group 2: 8 piglets 3 days old were injected by one intramuscular dose of toltrazuril (60 mg toltrazuril per kg body weight equivalent to 1.2 mL/Kg body weight) on SD0. • Group 3: 8 piglets 3 days old were dosed orally with the standard commercial formulation of toltrazuril, Cevazuril® (dose=20 mg toltrazuril per kg body weight equivalent to 0.4 mL/Kg body weight) on SD0. • Group 4: 12 piglets 3 days old, left untreated.
(§5) All four (4) groups of piglets were injected on SD0 with iron (Gleptosil®) at the dose rate of 1 ml per piglet.
(§6) The local and general tolerances, as well as body weight development, were assessed.

[3] = Local and general tolerance in 2-day-old piglets (Example B); conditions: all tested doses (i.m. 20 and 40 mg/kg)
Description: as §1, §2, §3

[4] = Local and general tolerance of a single intramuscular injection in 3-day-old piglets (Example A)
Description: as §4, §5, §6

**Q.** Which Fecal consistency (Isospora suis; Isospora suis challenge on SD3) does the source give for `Cc1cc(-n2c(=O)[nH]c(=O)n(C)c2=O)ccc1Oc1ccc(SC(F)(F)F)cc1` [toltrazuril] here?
**A.** unchanged

**Q.** And the Oocyst excretion (Isospora suis; Isospora suis challenge on SD3)?
**A.** No oocyst excretion

**Q.** What about the “Weight gain versus control animals (G4)” value (Isospora suis; infected animals) of the same compound?
**A.** gained more weight than the control animals

**Q.** And the Absorption [1]?
**A.** well absorbed

**Q.** And the “Weight gain versus control non-treated piglets” value ([2]; intramuscularly treated piglets, at SD0+29 days)?
**A.** +2 kg

**Q.** And the Body weight development ([2]; treated piglets)?
**A.** normal

**Q.** And the Tolerance [3]?
**A.** well tolerated

**Q.** And the “Time to disappearance of local reaction (edema) post injection” value ([4]; intramuscular 1.2 mL/Kg body weight)?
**A.** less than 1 week

**Q.** And the Local reaction ([4]; intramuscular 1.2 mL/Kg body weight (60 mg/kg))?
**A.** limited local reaction (edema) in some piglets

**Q.** What about the General tolerance ([4]; single intramuscular doses up to 60 mg/kg, 3-day-old piglets) of the same compound?
**A.** well tolerated

**Q.** What about the Pain at injection ([4]; single intramuscular injection, 3-day-old piglets) of the same compound?
**A.** No pain
